Reference: patent US11590116B2 (THERAVANCE BIOPHARMA R&D IP, LLC, priority 2019, dated 2023)

Experiments:
[1] = target: T1, recombinant human ALK5 (TGF-βR1) protein (Homo sapiens, UniProt P36897); test: Biochemical ALK5 (TGF-βR1) assay to measure pKi (LANCE Ultra ULight kinase assay); settings: apparent pKi from pIC50 by Cheng-Prusoff, read-out: ALK5 pKi (converted)
T1 construct: purchased Life Technologies PR9075A
T1 sequence (P36897 34-503): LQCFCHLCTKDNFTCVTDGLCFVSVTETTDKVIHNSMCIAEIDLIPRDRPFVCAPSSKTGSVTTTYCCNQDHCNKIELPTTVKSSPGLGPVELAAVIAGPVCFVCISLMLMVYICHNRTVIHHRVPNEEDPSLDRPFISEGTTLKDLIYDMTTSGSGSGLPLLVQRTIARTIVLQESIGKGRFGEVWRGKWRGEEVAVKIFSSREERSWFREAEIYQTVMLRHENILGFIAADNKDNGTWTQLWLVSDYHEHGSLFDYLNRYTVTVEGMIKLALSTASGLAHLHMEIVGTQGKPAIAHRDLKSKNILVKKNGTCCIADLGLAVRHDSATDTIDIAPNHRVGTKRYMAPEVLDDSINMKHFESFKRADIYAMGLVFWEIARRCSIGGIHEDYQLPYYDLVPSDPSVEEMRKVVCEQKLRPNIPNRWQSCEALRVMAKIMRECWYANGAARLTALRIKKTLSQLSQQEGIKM
How it was run: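 Compounds (10 μM to 25 pM) preincubated 60 minutes at room temperature with enzyme, then reaction run 60 minutes at 37° C with ATP added as 125 μM (5× final). Stopped with EDTA plus Eu-anti-phospho-Topoisomerase 2-alpha (Thr1342) antibody, TR-FRET read at 665 nm; pIC50 converted to pKi via Cheng-Prusoff.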

[2] = tested on: TGF-β-stimulated SMAD3 phosphorylation in BEAS-2B cells; test: Cellular ALK5 potency assay, inhibition of TGF-β stimulated pSMAD3 formation in BEAS-2B cells; type: cell-based; settings: Homo sapiens; inhibition of TGF-β stimulated pSMAD3 formation, BEAS-2B cells; read-out: BEAS2B pIC50 (converted)
How it was run: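 BEAS-2B human lung epithelial cells pre-treated 1 h at 37° C with compound in HBSS/25 mM HEPES/1% BSA, then stimulated 30 min with 10 ng/mL TGF-β (final). Lysates assayed for pSMAD3 by AlphaLISA; pIC50 from dose-dependent change versus stimulated untreated cells.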

SMILES	Ki [1]	IC50 [2]
C=C(CN1CCNCC1)c1cnc2ccc(-c3nc[nH]c3-c3cccc(C)n3)cc2c1 [Compound 256, 6-[5-(6-methyl-2-pyridyl)-1H-imidazol-4-yl]-3-[1-(piperazin-1-ylmethyl)vinyl]quinoline]	0.0398 to 0.316 nM	25.1 to 158 nM
Cc1cccc(-c2[nH]cnc2-c2ccc3ncc(C4CCC(N)CC4)cc3c2)n1 (centres unmarked) [Compound 142, 4-[6-[5-(6-methyl-2-pyridyl)-1H-imidazol-4-yl]-3-quinolyl]cyclohexanamine]	0.398 to 3.16 nM	25.1 to 158 nM
Cc1cccc(-c2n[nH]cc2-c2ccc3ncc(N4CC5CN(C)CC54)cc3n2)n1 (centres unmarked) [Compound 304, 7-(3-methyl-3,6-diazabicyclo[3.2.0]heptan-6-yl)-2-[3-(6-methyl-2-pyridyl)-1H-pyrazol-4-yl]-1,5-naphthyridine]	0.0398 to 0.316 nM	25.1 to 158 nM
Cc1cccc(-c2n[nH]cc2-c2ccc3ncc(-c4ccc(C5CCCN(Cc6ccccc6)C5)cc4)cc3n2)n1 (centres unmarked) [Compound 251, 7-[4-(1-benzyl-3-piperidyl)phenyl]-2-[3-(6-methyl-2-pyridyl)-1H-pyrazol-4-yl]-1,5-naphthyridine]	0.0398 to 0.316 nM	200 to 1260 nM
CC(C)N1CCN(CCNc2cnc3ccc(-c4c[nH]nc4-c4cccc(C(F)F)n4)nc3c2)CC1 [Compound 226, 6-[3-[6-(difluoromethyl)-2-pyridyl]-1H-pyrazol-4-yl]-N-[2-(4-isopropylpiperazin-1-yl)ethyl]-1,5-naphthyridin-3-amine]	0.0398 to 0.316 nM	25.1 to 158 nM

The next lines start with results.

Ki [1]	SMILES	IC50 [2]
0.0398 to 0.316 nM	COc1[nH]nc(-c2cccc(C)n2)c1-c1ccc2ncc(N)cc2n1 [Compound 600, 6-(5-methoxy-3-(6-methylpyridin-2-yl)-1H-pyrazol-4-yl)-1,5-naphthyridin-3-amine]	25.1 to 158 nM
0.0398 to 0.316 nM	Cc1cccc(-c2[nH]cnc2-c2ccc3ncc(C4=CCC(C(=O)O)CC4)cc3c2)n1 (centres unmarked) [Compound 461, 4-[6-[5-(6-methyl-2-pyridyl)-1H-imidazol-4-yl]-3-quinolyl]cyclohex-3-ene-1-carboxylic acid]	25.1 to 158 nM
0.0398 to 0.316 nM	Cc1cccc(-c2n[nH]cc2-c2ccc3nccc(-c4cnco4)c3n2)n1 [Compound 824, 5-[6-[3-(6-methyl-2-pyridyl)-1H-pyrazol-4-yl]-1,5-naphthyridin-4-yl]oxazole]	< 20 nM
0.398 to 3.16 nM	Cc1cccc(-c2n[nH]cc2-c2ccc3ncc(-c4cn[nH]c4-c4cccc(C)n4)cc3n2)n1 [Compound 604, 2-[3-(6-methyl-2-pyridyl)-1H-pyrazol-4-yl]-7-[5-(6-methyl-2-pyridyl)-1H-pyrazol-4-yl]-1,5-naphthyridine]	25.1 to 158 nM
0.0398 to 0.316 nM	Cc1cccc(-c2[nH]cnc2-c2ccc3ncc(-c4nc(C(=O)OC5CNC5)cs4)cc3c2)n1 [Compound 745, azetidin-3-yl 2-[6-[5-(6-methyl-2-pyridyl)-1H-imidazol-4-yl]-3-quinolyl]thiazole-4-carboxylate]	25.1 to 158 nM
0.0398 to 0.316 nM	Cc1nc(-c2nc3ccccn3c2-c2ccc3ncc(-c4cnc5n4CCNC5)cc3n2)ccc1F [Compound 560, 2-[2-(5-fluoro-6-methyl-2-pyridyl)imidazo[1,2-a]pyridin-3-yl]-7-(5,6,7,8-tetrahydroimidazo[1,2-a]pyrazin-3-yl)-1,5-naphthyridine]	25.1 to 158 nM
0.0398 to 0.316 nM	Cc1cccc(-c2n[nH]cc2-c2ccc3ncc(-c4cnc5n4CCNC5)cc3n2)n1 [Compound 548, 2-[3-(6-methyl-2-pyridyl)-1H-pyrazol-4-yl]-7-(5,6,7,8-tetrahydroimidazo[1,2-a]pyrazin-3-yl)-1,5-naphthyridine]	25.1 to 158 nM
0.0398 to 0.316 nM	Cc1cccc(-c2[nH]cnc2-c2ccc3ncc(-c4ccc(C(=O)O[C@H]5CCNC5)cc4)cc3c2)n1 [Compound 718, [(3S)-pyrrolidin-3-yl]4-[6-[5-(6-methyl-2-pyridyl)-1H-imidazol-4-yl]-3-quinolyl]benzoate]	25.1 to 158 nM
